Measured values taken from patent publication US8399480B2, “Hydroxymethyl pyrrolidines as beta 3 adrenergic receptor agonists” (Merck Sharp & Dohme Corp., priority 2008, dated 2013).
Like-named read-outs stand apart in the source and are kept apart here.

Legend:
β3AR = molecular target: T1, β3AR (Rattus norvegicus, UniProt P26255); conditions: rats, intravenous administration, cited from earlier work
T1 construct: host or cells: rat, in vivo (bladder)

[1] = molecular target: T2, human β3 adrenergic receptor (Homo sapiens, UniProt P13945); test: Functional assay: cAMP production (LANCE TR-FRET) in CHO cells stably transfected with cloned β3 adrenergic receptor; format: cell-based
T2 construct: expressed in transfected cells; host or cells: Chinese hamster ovary (CHO) cells, stably transfected
T2 sequence (P13945 whole entry): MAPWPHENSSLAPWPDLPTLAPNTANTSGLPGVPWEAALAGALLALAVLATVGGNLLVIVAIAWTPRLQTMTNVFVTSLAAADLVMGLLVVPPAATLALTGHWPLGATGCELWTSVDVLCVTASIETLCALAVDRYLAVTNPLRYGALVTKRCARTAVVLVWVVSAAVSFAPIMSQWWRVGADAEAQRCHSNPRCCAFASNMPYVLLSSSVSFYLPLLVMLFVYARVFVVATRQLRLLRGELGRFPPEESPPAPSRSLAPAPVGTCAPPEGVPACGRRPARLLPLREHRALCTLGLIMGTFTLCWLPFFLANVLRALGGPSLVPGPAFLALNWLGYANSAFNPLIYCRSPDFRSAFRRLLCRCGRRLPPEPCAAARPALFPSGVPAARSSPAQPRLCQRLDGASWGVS
In short: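 Agonist-stimulated cAMP in CHO cells stably expressing human β3 receptor, 6,000 cells per well in HBSS/HEPES/0.1% BSA with 0.6 mM IBMX, 30 min at room temperature. LANCE TR-FRET readout converted to cAMP via standard curve; maximal stimulation defined with isoproterenol.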

[2] = Table 7, β3AR-cAMP, read-out: Human β3 Functional
[3] = given as a range, cAMP, CHO cells, read-out: human β3 functional activity
[4] = Table 8, read-out: Human β3 Functional
[5] = Table 9, read-out: Human β^3 Functional
[6] = Table 10, β3AR-cAMP, read-out: Human β3 Functional
[7] = Table 11, read-out: Human β3 Functional
[8] = human β3 functional activity, shown as ranges, Table 13, read-out: Human β3 Functional

T1 sequence (P26255 whole entry): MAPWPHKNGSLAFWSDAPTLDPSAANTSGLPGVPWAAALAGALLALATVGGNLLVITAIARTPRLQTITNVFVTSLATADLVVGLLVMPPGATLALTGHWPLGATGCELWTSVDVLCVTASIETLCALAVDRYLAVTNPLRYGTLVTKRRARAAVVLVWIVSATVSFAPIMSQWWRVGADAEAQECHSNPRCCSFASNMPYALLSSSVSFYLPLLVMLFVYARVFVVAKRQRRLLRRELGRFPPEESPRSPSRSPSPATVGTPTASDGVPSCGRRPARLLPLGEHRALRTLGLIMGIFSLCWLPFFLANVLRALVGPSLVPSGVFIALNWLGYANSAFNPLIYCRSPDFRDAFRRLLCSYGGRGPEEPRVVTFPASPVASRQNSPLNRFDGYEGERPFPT

Compound: C[C@H](Cc1ccc2c(c1)OC(C(=O)[O-])(C(=O)[O-])O2)NC[C@H](O)c1cccc(Cl)c1.[Na+].[Na+] [CL316243]
- bladder capacity (β3AR; cystometric studies, prolonged micturition interval without increasing residual urine volume): increases bladder capacity
- bladder pressure (β3AR): reduces bladder pressure

Compound: O=S(=O)(Cc1cccnc1)Nc1ccc(C[C@@H]2CC[C@H]([C@H](O)c3ccccc3)N2)cc1 [Example 249]
- EC50 [1, 2]: 1000 to 3000 nM

Compound: O=S(=O)(Cc1ccncc1)Nc1ccc(C[C@@H]2CC[C@H]([C@H](O)c3ccccc3)N2)cc1 [Example 250]
- EC50 [1, 2]: 101 to 1000 nM

Compound: COc1cccc(NC(=O)Nc2ccc(C[C@@H]3CC[C@H]([C@H](O)c4ccccc4)N3)cc2)c1 [Example 251, N-[4-({(2S,5R)-5-[(R)-hydroxy(phenyl)methyl]pyrrolidin-2-yl}methyl)phenyl]-N′-(3-methoxyphenyl)urea]
- EC50 [1, 3]: 11 to 100 nM

Compound: CC(NC(=O)Nc1ccc(C[C@@H]2CC[C@H]([C@H](O)c3ccccc3)N2)cc1)c1cscn1 (stereo partly drawn) [Example 252]
- EC50 [1, 4]: 101 to 1000 nM

Compound: CN(Cc1cscn1)C(=O)Nc1ccc(C[C@@H]2CC[C@H]([C@H](O)c3ccccc3)N2)cc1 [Example 253]
- EC50 [1, 4]: 11 to 100 nM

Compound: O=C(NCc1ccccc1F)Nc1ccc(C[C@@H]2CC[C@H]([C@H](O)c3ccccc3)N2)cc1 [Example 254]
- EC50 [1, 4]: 101 to 1000 nM

Compound: O=C(NCc1nnc(-c2ccccc2)[nH]1)Nc1ccc(C[C@@H]2CC[C@H]([C@H](O)c3ccccc3)N2)cc1 [Example 255]
- EC50 [1, 4]: 1 to 10 nM

Compound: Cc1cc(C)nc(CNC(=O)Nc2ccc(C[C@@H]3CC[C@H]([C@H](O)c4ccccc4)N3)cc2)n1 [Example 256]
- EC50 [1, 4]: 11 to 100 nM

Compound: O=C(Nc1ccc(C[C@@H]2CC[C@H]([C@H](O)c3ccccc3)N2)cc1)N1CCc2cccnc21 [Example 257]
- EC50 [1, 4]: 101 to 1000 nM

Compound: O=C(Nc1ccc(C[C@@H]2CC[C@H]([C@H](O)c3ccccc3)N2)cc1)N1CCC2(CCOC2=O)CC1 [Example 258]
- EC50 [1, 4]: 101 to 1000 nM

Compound: O=C1OC2(CCN(C(=O)Nc3ccc(C[C@@H]4CC[C@H]([C@H](O)c5ccccc5)N4)cc3)CC2)c2cnccc21 [Example 259]
- EC50 [1, 4]: 101 to 1000 nM

Compound: C[C@H](NC(=O)c1ccccc1F)C(=O)Nc1ccc(C[C@@H]2CC[C@H]([C@H](O)c3ccccc3)N2)cc1 [Example 263, 2-Fluoro-N-((1S)-2-{[4-({(2S,5R)-5-[(R)-hydroxy(phenyl)methyl]pyrrolidin-2-yl}methyl)phenyl]amino}-1-methyl-2-oxoethyl)benzamide]
- EC50 [1, 3]: < 1 nM

Compound: C[C@H](NS(=O)(=O)c1ccc(F)cc1)C(=O)Nc1ccc(C[C@@H]2CC[C@H]([C@H](O)c3ccccc3)N2)cc1 [Example 264, (2S)-2-{[(4-Fluorophenyl)sulfonyl]amino}-N-[4-({(2S,5R)-5-[(R)-hydroxy(phenyl)methyl]pyrrolidin-2-yl}methyl)phenyl]propanamide]
- EC50 [1, 3]: 11 to 100 nM

Compound: CC(C(=O)Nc1ccc(C[C@@H]2CC[C@H]([C@H](O)c3ccccc3)N2)cc1)N(C)C(=O)c1ccccn1 (stereo partly drawn) [Example 265]
- EC50 [1, 5]: 101 to 1000 nM

Compound: CC(NC(=O)c1c(F)cccc1F)C(=O)Nc1ccc(C[C@@H]2CC[C@H]([C@H](O)c3ccccc3)N2)cc1 (stereo partly drawn) [Example 267]
- EC50 [1, 5]: < 1 nM

Compound: CC(NC(=O)c1ncccn1)C(=O)Nc1ccc(C[C@@H]2CC[C@H]([C@H](O)c3ccccc3)N2)cc1 (stereo partly drawn) [Example 268]
- EC50 [1, 5]: < 1 nM

Compound: CC(NC(=O)c1cnccn1)C(=O)Nc1ccc(C[C@@H]2CC[C@H]([C@H](O)c3ccccc3)N2)cc1 (stereo partly drawn) [Example 269]
- EC50 [1, 5]: 1 to 10 nM

Compound: CC(N)C(=O)Nc1ccc(C[C@@H]2CC[C@H]([C@H](O)c3ccccc3)N2)cc1 (stereo partly drawn) [Example 270]
- EC50 [1, 5]: 11 to 100 nM

Compound: CC(NC(=O)c1cc[nH]n1)C(=O)Nc1ccc(C[C@@H]2CC[C@H]([C@H](O)c3ccccc3)N2)cc1 (stereo partly drawn) [Example 271]
- EC50 [1, 5]: < 1 nM

Compound: CC(NC(=O)c1ccccc1)C(=O)Nc1ccc(C[C@@H]2CC[C@H]([C@H](O)c3ccccc3)N2)cc1 (stereo partly drawn) [Example 272]
- EC50 [1, 5]: < 1 nM

Compound: CC(NS(=O)(=O)Cc1ccccc1)C(=O)Nc1ccc(C[C@@H]2CC[C@H]([C@H](O)c3ccccc3)N2)cc1 (stereo partly drawn) [Example 273]
- EC50 [1, 5]: 11 to 100 nM

Compound: O=C(Nc1ccc(C[C@@H]2CC[C@H]([C@H](O)c3cccc(F)c3)N2)cc1)[C@H]1CCc2scnc21 [Example 278]
- EC50 [1, 6]: 11 to 100 nM

Compound: O=C(Nc1ccc(CC2CCC(C(O)c3cccc(F)c3)N2)cc1)C1CCc2scnc21 (stereo not drawn) [Example 279]
- EC50 [1, 6]: < 1 nM

Compound: Cc1nnc(CC(=O)Nc2ccc(C[C@@H]3CC[C@H]([C@H](O)c4cccc(F)c4)N3)cc2)[nH]1 [Example 280]
- EC50 [1, 6]: 1 to 10 nM

Compound: O=C(Cn1ncccc1=O)Nc1ccc(C[C@@H]2CC[C@H]([C@H](O)c3cccc(F)c3)N2)cc1 [Example 281]
- EC50 [1, 6]: 1 to 10 nM

Compound: O=C(Nc1ccc(C[C@@H]2CC[C@H]([C@H](O)c3ccc(F)cc3)N2)cc1)[C@@H]1CCc2scnc21 [Example 284]
- EC50 [1, 7]: < 1 nM

Compound: O=C(Cn1ncccc1=O)Nc1ccc(C[C@@H]2CC[C@H]([C@H](O)c3ccc(F)cc3)N2)cc1 [Example 287]
- EC50 [1, 7]: 1 to 10 nM

Compound: O=C(Nc1ccc(C[C@@H]2CC[C@H]([C@H](O)c3ccc(F)c(F)c3)N2)cc1)[C@@H]1CCc2scnc21 [Example 290]
- EC50 ([1]; Table 12, read-out: Human β3 Functional): < 1 nM

Compound: O=C(Nc1ccc(C[C@@H]2CC[C@H]([C@H](O)c3cccc(Cl)c3)N2)cc1)[C@H]1CCc2scnc21 [Example 296]
- EC50 [1, 8]: 11 to 100 nM

Compound: O=C(Nc1ccc(C[C@@H]2CC[C@H]([C@H](O)c3cccc(Cl)c3)N2)cc1)[C@@H]1CCc2scnc21 [Example 297]
- EC50 [1, 8]: < 1 nM

Compound: Nc1nc(CC(=O)Nc2ccc(C[C@@H]3CC[C@H]([C@H](O)c4cccc(Cl)c4)N3)cc2)cs1 [Example 304]
- EC50 [1, 8]: 1 to 10 nM

Compound: O=C(Cn1ncccc1=O)Nc1ccc(C[C@@H]2CC[C@H]([C@H](O)c3cccc(Cl)c3)N2)cc1 [Example 305]
- EC50 [1, 8]: 11 to 100 nM

Compound: Nc1nc(CC(=O)Nc2ccc(C[C@@H]3CC[C@H]([C@H](O)c4ccccc4)N3)cc2Br)cs1 [Example 312, 2-(2-Amino-1,3-thiazol-4-yl)-N-[2-bromo-4-({(2S,5R)-5-[(R)-hydroxy(phenyl)methyl]pyrrolidin-2-yl}methyl)phenyl]acetamide]
- EC50 [1, 3]: 11 to 100 nM

Compound: Nc1nc(CC(=O)Nc2ccc(C[C@H]3CC[C@H]([C@H](O)c4ccccc4)N3)cc2Br)cs1 [Example 313, 2-(2-Amino-1,3-thiazol-4-yl)-N-[2-bromo-4-({(2R,5R)-5-[(R)-hydroxy(phenyl)methyl]pyrrolidin-2-yl}methyl)phenyl]acetamide]
- EC50 [1, 3]: 101 to 1000 nM
